Source: article PMC9467586, “Development of novel 9-O-substituted-13-octylberberine derivatives as potential anti-hepatocellular carcinoma agents” (Journal of Enzyme Inhibition and Medicinal Chemistry, 2022)

How the values were obtained:
HepG2 cells [1] = assay: Mitochondrial membrane potential (MMP) measurement with JC-1; assay type: cell-based, human; settings: 72 h (control 1.90%)
Procedure: HepG2 cells were incubated with 6k as described above. After incubation for 72 h, the cells were washed in PBS and resuspended in 500 μL JC-1 incubation buffer at 37 °C for 15 min. Then, […] was immediately assessed for a red fluorescence using a microplate reader (ELx80, Bio-Tek, USA). The fluorescent signal of monomers was measured with an excitation wavelength of 488 nm. The percentage of cells with healthy or collapsed mitochondrial membrane potentials was monitored by flow cytometry analysis (BectoneDickinson, San Jose, CA, USA).

HepG2 cells [2] = assay: In vitro antiproliferative MTT assay, HepG2 cells; assay type: cell-based, human; settings: Homo sapiens, 72 h, mean ± SD (n = 3), read-out: IC50 (antiproliferative activity against HepG2 cells)
Procedure: (§1) HepG2, Sk-Hep-1, Huh-7, Hep3B and L-02 cells were purchased from Nanjing Key Gen Biotech Co. Ltd. (Nanjing, China). The cytotoxicity of test compounds was determined using an MTT assay. Briefly, the cell lines were incubated at 37 °C in a humidified 5% CO2 incubator for 24 h in 96-microwell plates. After medium removal, 100 μL of culture medium with 0.1% DMSO containing test compounds at different concentrations was added to each well and incubated at 37 °C for another 72 h. The MTT (5 mg/mL in PBS) was added and incubated for another 4 h, the optical density was detected with a microplate reader at 490 nm. The IC50 values were calculated according to the dose-dependent curves. All the experiments were repeated in at least three independent experiments.

normal hepatocytes L-02 = assay: MTT cytotoxicity assay, normal hepatocytes L-02; assay type: cell-based; settings: Hepatocyte; normal hepatocytes L-02, MTT, 72 h, mean ± SD (n = 3)
Procedure: as §1

[3] = test system: H22 liver cancer xenograft; assay: In vivo anti-HCC assay, H22 liver cancer xenograft mouse model; design: species or system mice; settings: intravenous; for tumour inhibitory rate (TIR, w/w): once a day for 21 days, H22 mice
Procedure: Five-week-old male Institute of Cancer Research (ICR) mice were purchased from Shanghai SLAC Laboratory Animals Co. Ltd. Briefly, a total of 1 × 10^6 H22 cells were subcutaneously inoculated into the right flank of ICR mice according to protocols of tumour transplant research, to initiate tumour growth. After incubation for one day, mice were weighed and randomly divided into 5 groups of 8 animals. The groups were administered berberine (30 mg/kg) and 6k (15 or 30 mg/kg) in a vehicle of 10% DMF/2% Tween 80/88% saline, respectively. Vehicle and cyclophosphamide (20 mg/kg) were employed as negative and positive controls, respectively. Treatments were performed by intravenous injection once per day for a total of 21 consecutive days. Body weights and tumour volumes were measured every 2 days. The mice were sacrificed after the treatments, and the tumours were excised and weighed. The tumour volume and inhibition rate (w/w) were calculated as follows: tumour volume = L × W^2/2, where L is the length and W is the width; tumour inhibitory ratio (%) = (1-average tumour weight of treated group/average tumour weight of control group) × 100%. All procedures were performed following institutional approval in accordance with the NIH Guide for the Care and Use of Laboratory Animals.

HepG2 cells [4] = assay: Annexin V-FITC/PI apoptosis assay, flow cytometry; assay type: cell-based, human; settings: 72 h (control 6.28%)
Procedure: Briefly, after treatment with or without 6k at indicated concentrations for 72 h, the cells were washed twice in PBS, centrifuged and resuspended in 500 μL AnnexinV binding buffer. The cells were then harvested, washed and stained with 5 μL Annexin V-FITC and 5 μL PI in the darkness for 15 min. Apoptosis was analysed using a FACS Calibur flow cytometer (BectoneDickinson, San Jose, CA, USA).

**Q.** With CCCCCCCCc1c2[n+](cc3c(OCCCCCCCCN4CCN(C)CC4)c(OC)ccc13)CCc1cc3c(cc1-2)OCO3.[Br-] [Compound 6k, 10-Methoxy-9-((8–(4-methylpiperazin-1-yl)octyl)oxy)-13-octyl-5,6-dihydro-[1,3]dioxolo[4,5-g]isoquinolino[3,2-a]isoquinolin-7-ium bromide] as the molecule, how does the “percentage of cells with green fluorescence (JC-1)” value (HepG2 cells [1]; HepG2, 0.25 μM) read?
**A.** 10.33%

**Q.** And the “percentage of cells with green fluorescence (JC-1)” value (HepG2 cells [1]; HepG2, 1.0 μM)?
**A.** 37.52%

**Q.** And the IC50 (HepG2 cells [2])?
**A.** 0.76 ± 0.06 µM

**Q.** What about the IC50 (normal hepatocytes L-02) of the same molecule?
**A.** 7.68 ± 0.67 µM

**Q.** And the “tumour inhibitory rate (TIR, w/w)” value ([3]; 15 mg/kg)?
**A.** 50.4%

**Q.** What about the “tumour inhibitory rate (TIR, w/w)” value ([3]; 30 mg/kg) of the same molecule?
**A.** 61.1%

**Q.** And the “mice body weights during treatment” value ([3]; 15 or 30 mg/kg, 21 days)?
**A.** didn’t cause significant loss in mice body weights

**Q.** What about the “total apoptotic cells (Q2 + Q3)” value (HepG2 cells [4]; HepG2, 0.25 μM) of the same molecule?
**A.** 16.42%

**Q.** And the “total apoptotic cells (Q2 + Q3)” value (HepG2 cells [4]; HepG2, 0.50 μM)?
**A.** 34.29%

**Q.** And the “total apoptotic cells (Q2 + Q3)” value (HepG2 cells [4]; HepG2, 1.0 μM)?
**A.** 59.17%
